The source of these data is patent US9365830B2, “Agents and methods for inhibiting human pluripotent stem cell growth” (VIACYTE, INC., priority 2010, dated 2016).

Format in all cases: cell-based, human
For assay [1], the system named is adherent Stage 1 cell cultures of BG02. Description: Q-PCR marker gene expression, adherent Stage 1 cultures of BG02. To be noted: for SOX17 gene expression: end of Stage 1, compared to DMSO control (FIG. 4D); for OCT4 and NANOG gene expression: end of Stage 1, compared to DMSO control (FIGS. 4A, 4B); for FOXA2 (HNF3β) expression: end of Stage 1, compared to DMSO control (FIG. 4C). From the text:
FIGS. 4A-4G are bar graphs showing the relative gene expression levels of OCT4 (FIG. 4A), NANOG (FIG. 4B), FOXA2 (FIG. 4C), SOX17 (FIG. 4D), SOX7 (FIG. 4E), PAX6 (FIG. 4F) and ZIC1 (FIG. 4G) BG02 with treatment of candidate selective cytotoxic agents from the LOPAC1280™ sublibrary (Table 4) to adherent Stage 1 cell cultures of BG02. Expression levels were normalized using the geometric mean of three housekeeping genes, GUSB, CYCG and TBP. The graphs depict fold regulation compared to the hESC sample. The large arrow heads indicate time of the drug treatment. D=DMSO (control); C=Chelerythrine Chloride; A=AG490; B=BTO-1; De=Dephostatin; S=SU6656.
Screen for Effects on Stages 1-5 Differentiation. To further determine whether these 5 candidate compounds added at Stage 1 affected other differentiated cell types (e.g. Stages 2-5: foregut endoderm, posterior foregut endoderm, pancreatic endoderm and endocrine precursor cells, respectively), hES were differentiated in the presence or absence of compounds, and RNA samples were taken at various stages for gene expression analysis by Q-PCR.
Gene expression levels were plotted relative to a DMSO treated control at the end of Stage 1 (FIG. 4), and relative to undifferentiated hESC aggregates (FIGS. 5 and 6). See “Control” in FIGS. 4, 5 & 6. […] Chelerythrine chloride, Dephostatin, SU 6656 and Tyrphostin AG 490 compounds each caused an increase in SOX17 gene expression as compared to the DMSO control, consistent with the gene expression profile for Stage 1 definitive endoderm cell cultures (FIG. 4D). However, Tyrphostin AG 490 (AG) and SU 6656 (SU) each caused a decrease in FOXA2 (HNF3β) expression as compared to the DMSO control, indicating adverse effects of these two compounds on definitive endoderm (FIG. 4C). Yet none of the compounds appeared to substantially impact expression of non-definitive endoderm markers including SOX7, PAX6 or ZIC1 (FIGS. 4 E, 4F & 4G), and were not, therefore, excluded on the basis of inducing differentiation to other cell types. […] This compound neither decreased OCT4 or NANOG expression, nor increased FOXA2 (HNF3β) or SOX17 expression, as would have been expected of a pluripotent stem cell-selective inhibitor/cytotoxic agent.

The next assay has as its system NPCs. Description: Secondary screen, lowest effective dose on NPCs. To be noted: lowest concentration that elicited cytotoxicity, range 0.1 to 50 μM, read-out: ED NPC (lowest effective dose). On the procedure:
In addition, the complete LOPAC1280™ collection was also screened for effects on neural progenitor cells (NPCs) that were derived from the hESCs. Neural progenitors were plated in serum-free MedII conditioned medium at 6×10^4 cells/well and fed daily. Two days after plating, 10 μM of each compound was added and the cells were cultured for an additional 2 days. […] Reduced crystal violet staining was indicative of lower proportions of NPCs. See circled wells in FIG. 7B. The left and right columns of the LOPAC1280™ plates from which the compounds were dispensed were empty and served as untreated controls. […] See Table 6 below listing the name and class of activity of each candidate compound identified in this screen (except chelerythrine chloride, which is listed in Table 5). ChCl was not included in the subsequent round of screening. Therefore only 40 compounds were tested further.
(§1) Using a range of different concentrations from 0.1 to 50 μM, the forty compounds in Table 6 were re-screened (secondary screen) using hESCS and NPCs. The effective dose (ED) was defined as the lowest concentration of a compound that elicited cytotoxicity during the secondary screen. […] The darker wells were indicative of the increased numbers or percentages of proliferating or growing pluripotent stem cells in the wells. In addition, these 40 compounds were screened on differentiating definitive endoderm (DE) cell cultures in 96-well plate impedance assays (described above) to determine which of these compounds were not cytotoxic to definitive endoderm cells at the lowest effective dose on either hESC or NPC. […] See “ACEA DE” column in Table 6.

The test system of the next assay is hESCs. Description: Secondary screen, lowest effective dose on hESCs. To be noted: lowest concentration that elicited cytotoxicity, range 0.1 to 50 μM, read-out: ED hESC (lowest effective dose). As for the experimental part:
To expand the number of potential candidate hESC cytotoxic and inhibitory compounds, the complete LOPAC1280™ collection (containing 1,280 compounds) was screened. In the primary screen, cytotoxicity was tested on undifferentiated hESCs (about 3×10^4 BG01 cells) in 16 standard 96-well trays, in DC-HAIF defined medium on growth factor-reduced MATRIGEL™ diluted 1:200, which were fed daily (FIG. 7A). 10 μM of each compound was added to the hESCs one day after plating, and the cells were cultured for an additional 2 days. Plates were then fixed and stained for alkaline phosphatase (AP) to identify relative decreases in proliferation or growth of hESCs (as reduced AP staining), indicative of lower proportions of hESCs. See the circled wells in FIG. 7A.
as §1

Assay [2] relates to differentiating definitive endoderm (DE) cell cultures. Description: 96-well plate impedance assay (ACEA) on differentiating definitive endoderm at lowest effective dose. Set-up: key: Viable: Compounds that did not appear to be cytotoxic toward differentiating DE cultures were marked as “viable”, meaning that the compound did not affect the survival, growth, proliferation or differentiation of the differentiated cells. To be noted: at the lowest effective dose on either hESC or NPC.
From the text: The impedance assay on the hESCs using the compounds in Table 4 above gave greater than twenty (20) hits. However, the ideal candidate compound of the present invention should not only be inhibitory or cytotoxic to human pluripotent stem cells, such as hESCs or hIPSCs, but should at the same time have no effect on cell viability of differentiated or differentiating cell populations including Stage 1, 2, 3, 4 and 5 type cells cultures (definitive endoderm, foregut endoderm, posterior foregut, pancreatic endoderm and endocrine cells, respectively). […] Approximately 3×10^4 hES cells were plated per well and grown for 24 hrs in DC-HAIF defined medium (i.e. StemPro® hESC SFM medium (Life Technologies, Carlsbad, Calif.). Stage 1 or definitive endoderm differentiation was then induced by changing the medium and culturing in RPMI, 100 ng/mL Activin A, and 10 ng/mL of FGF2. […] of GSK-3 beta Inhibitor 15 (Calbiochem #361558) as added to the culture for the first 24 hours of differentiation only. 10 μM of each of the candidate compounds were added about 48 hours or 2 days after differentiation was induced (see FIGS. 3 C & D, large arrowhead), and the cells were cultured for an additional 2 days.
as §1

Read-outs that look alike come from different tables or passages of the source.

On to `CN(N=O)c1cc(O)ccc1O` [Dephostatin], for which, in assay [1], the SOX17 gene expression entry is listed as “increase”; the “OCT4 and NANOG gene expression” value is listed as “subtle relative decrease”.
For `CN(C)S(=O)(=O)c1ccc2c(c1)/C(=C/c1cc3c([nH]1)CCCC3)C(=O)N2` [SU 6656], in assay [1], the “FOXA2 (HNF3β) expression” value is recorded as “decrease”; the SOX17 gene expression entry is “increase”; the “OCT4 and NANOG gene expression” value is “subtle relative decrease”. Also, in the assay with NPCs (Homo sapiens, 48 h), the minimal effective concentration was more than 50 µM. In addition, in the assay with hESCs (Homo sapiens), the minimal effective concentration was determined as 25 µM. Besides, the “ACEA DE” value in assay [2] is on record as “Viable”.
For “22, 23-dihydroavermectin B1a+22,23-dihydroavermectin B1b [Ivermectin]”, the minimal effective concentration in the assay on NPCs is given as more than 50 µM; in the assay with hESCs, 5 µM. Besides, the “ACEA DE” value in assay [2] is recorded as “Viable”.
On to `N#C/C(=C\c1ccc(O)c(O)c1)C(=O)NCc1ccccc1` [Tyrphostin AG 490], for which, in assay [1], the “FOXA2 (HNF3β) expression” value is listed as “decrease”; the SOX17 gene expression result is given as “increase”; the “OCT4 and NANOG gene expression” value is listed as “subtle relative decrease”. Also, the minimal effective concentration in the assay on NPCs amounted to 10 µM. Also, the minimal effective concentration in the assay on hESCs was 25 µM. In addition, in assay [2], the “ACEA DE” value is given as “Viable”.
